Assay results reported in paper PMC11224403, “Des-acyl ghrelin reduces alcohol intake and alcohol-induced reward in rodents” (Translational Psychiatry, 2024).

How the values were obtained:
[1] = tested on: µ-opioid receptor; type: cell-based, human; conditions: 50 µM DAG in results (8.3 µM in methods); luminescence, triplicates
[2] = tested on: male and female rats; experiment: Intermittent-access alcohol drinking, repeated DAG injections; type: in vivo, Rcc Han Wistar rats; conditions: for 4-h alcohol intake, overall / 24-h alcohol intake, overall: repeated DAG 1 mg/kg IP at three drinking sessions
Excerpt: Male and female Rcc Han Wistar rats (8–12 weeks old at arrival; Envigo, Horst, Netherlands) were used for the alcohol drinking and locomotor activity experiments as they drink alcohol to intoxicating levels. For in vivo microdialysis studies male Wistar rats (Charles River, Calco, Italy) were used as they display robust dopamine levels in NAc shell after alcohol injection. […] All rodents were allowed to habituate to the animal facility at least one week before they entered an experiment. During housing (20 °C with 50% humidity) the rodents had free access to water and standard chow (Teklad Rodent Diet; Envigo, Madison, WI, USA). These experiments were approved by the Ethics Committee for Animal Experiments (ethical numbers: 1457/18, 3276/18, 1556/18, 3348/20; Gothenburg, Sweden) and followed the ARRIVE guidelines. The sample sizes of each experiment were based on previous experience in which statistical significance has been detected. The person who conducted the experiments, and analyzed the collected data was aware of the treatment allocation. Only preset exclusion criteria were used when analyzing the data obtained in attempts to exclude confounding factors in analyzing data. In the alcohol drinking experiments leaking bottles and low alcohol consumption (<3.0 g/kg for males; <3.5 g/kg for females) were preset exclusion criteria. The preset exclusion criterion in the ex vivo HPLC-EC, ELISA, and recombinant cell line experiments was contamination of the sample. Misplaced probes, technical difficulties, and damages to the surgery area were preset exclusion criteria for the in vivo microdialysis experiment. Intra-cage male aggression was the preset exclusion criterion for the locomotor activity and CPP experiments. To minimize tentative confounding factors, the order of treatments was stratified, with treatments being mixed for each animal cage and for each apparatus used as well as balancing the alcohol intake between future treatment groups. Although each experiment only was performed once, they were separated over different laboratory days with equal data obtained between sessions.
Alcohol (95%; Solveco AB, Stockholm, Sweden) was either diluted to a 20% solution using tap water (drinking experiment) or to a 15% (w/v) solution with 0.9% NaCl. Alcohol was in the behavioral and neurochemical tests injected (intraperitoneally, IP) 5 min before the test. A dose of 1.75 g/kg was used in male mice as it causes robust locomotor stimulation and induces a CPP [37–39], and 2 g/kg was used for rats as it elevates the dopamine levels in NAc shell. DAG (Tocrise Bioscience, Bristol, UK) was dissolved in 0.9% NaCl in doses (0.25–2 mg/kg) known to reduce food intake and DAG was injected IP).
Individually housed rats had intermittent access to an alcohol (20%) bottle and a water bottle, three 24-h sessions per week, and only water bottles the remaining days. A reversed light/dark cycle was used, and the bottles were changed when the lights went out. First, the rats consumed alcohol for 10 weeks (baseline drinking), where the bottles and food were weighed daily and the body weight weekly. During treatments, the bottles and food were weighed at 4- and/or 24-h and the body weight was measured daily. In the first drinking experiment, the potential of DAG to reduce alcohol consumption was tested and therefore, vehicle or DAG (1 mg/kg) was acutely injected into male (n = 12) or female (n = 12) rats. The second drinking experiment was conducted to establish the effects of lower DAG doses on alcohol intake. Therefore, separate male (n = 18) or female (n = 18) rats, were acutely injected with lower DAG doses (0.5 or 0.25 mg/kg) or vehicle. The third alcohol drinking experiment evaluated the ability of repeated DAG injections to lower alcohol drinking. Therefore, additional male (n = 24) and female (n = 24) rats were injected with either vehicle or DAG (1 mg/kg) at three alcohol-drinking sessions. […]

[3] = female rats, repeated DAG 1 mg/kg IP
[4] = female rats, n = 7 vs vehicle n = 9
[5] = female rats, repeated DAG 1 mg/kg IP, drinking session 2, n = 7 vs vehicle n = 9
[6] = female rats, repeated DAG 1 mg/kg IP, n = 7 vs vehicle n = 9
[7] = male rats, repeated DAG 1 mg/kg IP
[8] = male rats, n = 8 vs vehicle n = 8

Substance: des-acyl ghrelin (GSSFLSPEHQRVQQRKESKKPPAKLQPR; Ghrelin-28 non-acylated; UniProt Q9UBU3 24-51, looked up) [DAG, non-octanoylated form of ghrelin; purchased from Tocris (printed Tocrise Bioscience), dissolved in 0.9% NaCl]
- activation of µ-opioid receptor [1]: no activation
- alcohol preference [2, 3]: remained unaltered by repeated injections of DAG
- body weight [2, 3]: not affected by repeated DAG treatment
- total fluid intake [2, 3]: remained unaltered by repeated injections of DAG
- water intake [2, 3]: remained unaltered by repeated injections of DAG
- 4-h alcohol intake, overall [2, 4]: overall reduced the alcohol consumption at the 4-h time point (treatment F1,14 = 9.17, P = 0.0090 **; time F2,28 = 12.63, P = 0.0001; interaction F2,28 = 1.02, P = 0.3754)
- 24-h alcohol intake, overall [2, 4]: An overall decline in 24-h alcohol intake was observed (treatment F1,14 = 14.72, P = 0.0018 **; time F2,28 = 2.91, P = 0.0711; interaction F2,28 = 6.43, P = 0.0051 ##)
- 4-h alcohol intake, session 2 [2, 5]: a decrease specifically evident at alcohol drinking session 2 (P = 0.0158)
- 4-h food intake, session 2 [2, 5]: The lowered food intake by DAG was found at alcohol drinking session 2 (P = 0.0475)
- 4-h food intake, overall [2, 6]: A lowered food intake by repeated DAG injections was observed at the 4-h (treatment F1,14 = 4.80, P = 0.0460 *; time F2,28 = 4.79, P < 0.0001; interaction F2,28 = 0.57, P = 0.5742)
- 24-h food intake [2, 6]: not at the 24-h time point (treatment F1,14 = 0.53, P = 0.4798; time F2,28 = 1.68, P = 0.2049; interaction F2,28 = 0.19, P = 0.8269)
- body weight [2, 7]: unchanged after repeated DAG injections
- preference for alcohol [2, 7]: unchanged after repeated DAG injections
- water intake [2, 7]: unchanged after repeated DAG injections
- 4-h alcohol intake, overall [2, 8]: overall decrease in alcohol intake at the A 4-h time point (treatment F1,14 = 5.12, P = 0.0401 *; time F2,28 = 1.87, P = 0.1754; interaction F2,28 = 0.59, P = 0.5622)
- 24-h alcohol intake, overall [2, 8]: An overall reduction in alcohol intake was observed after DAG injections (treatment F1,14 = 1.96, P = 0.1836; time F2,28 = 3.44, P = 0.0460; interaction F2,28 = 4.34, P = 0.0228 #)
- total fluid intake, 24-h ([2]; male rats, repeated DAG 1 mg/kg IP, 24 h): overall decline in the total fluid intake at the 24-h time point (P = 0.0304)
- 24-h alcohol intake, session 2 ([2]; male rats, repeated DAG 1 mg/kg IP, drinking session 2, n = 8 per group): specifically at alcohol drinking session 2 (P = 0.0324)
- 4-h alcohol intake, session 3 ([2]; male rats, repeated DAG 1 mg/kg IP, drinking session 3, n = 8 per group): specifically lower after DAG at alcohol drinking session 3 (P = 0.0256)
- 4-h food intake ([2]; male rats, repeated DAG 1 mg/kg IP, n = 8 per group (4-h statistics)): did not alter the food intake at any time point (4-h: treatment F1,14 = 1.41, P = 0.2546; time F2,28 = 6.86, P = 0.0045; interaction F2,28 = 0.05, P = 0.9518
- 24-h food intake ([2]; male rats, repeated DAG 1 mg/kg IP, n = 8 per group (24-h statistics)): 24-h: treatment F1,14 = 0.55, P = 0.4727; time F2,28 = 13.79, P < 0.0001; interaction F2,28 = 1.03, P = 0.3707
